BigSolDB 2.1

O=C(O)Cn1cnnn1
Conditions	solubility (mole fraction)
in acetone, 288.23 K	0.0964
in acetone, 293.32 K	0.105
in acetone, 298.24 K	0.115
in acetone, 303.31 K	0.125
in acetone, 308.18 K	0.136
in acetone, 313.26 K	0.149
in acetone, 318.27 K	0.162
in acetone, 323.23 K	0.175
in ethanol, 283.27 K	0.0517
in ethanol, 288.17 K	0.0621
in ethanol, 293.46 K	0.075
in ethanol, 298.22 K	0.0891
in ethanol, 303.31 K	0.108
in ethanol, 308.17 K	0.129
in ethanol, 313.23 K	0.157
in ethanol, 318.21 K	0.189
in ethanol, 323.26 K	0.229
in ethyl acetate, 288.27 K	0.0121
in ethyl acetate, 293.28 K	0.0138
in ethyl acetate, 298.19 K	0.0154
in ethyl acetate, 303.31 K	0.0173
in ethyl acetate, 308.22 K	0.0193
in ethyl acetate, 313.26 K	0.0218
in ethyl acetate, 318.16 K	0.0246
in ethyl acetate, 323.21 K	0.0281
in isopropanol, 288.17 K	0.0282
in isopropanol, 293.22 K	0.0374
in isopropanol, 298.26 K	0.0491
in isopropanol, 303.2 K	0.063
in isopropanol, 308.21 K	0.0794
in isopropanol, 313.29 K	0.0985
in isopropanol, 318.24 K	0.119
in isopropanol, 323.27 K	0.143
in methanol, 288.18 K	0.145
in methanol, 293.29 K	0.155
in methanol, 298.23 K	0.173
in methanol, 303.22 K	0.199
in methanol, 308.24 K	0.233
in methanol, 313.34 K	0.276
in methanol, 318.22 K	0.326
in methanol, 323.19 K	0.383
in n-butyl acetate, 288.22 K	0.00443
in n-butyl acetate, 293.3 K	0.00483
in n-butyl acetate, 298.33 K	0.00552
in n-butyl acetate, 303.18 K	0.00647
in n-butyl acetate, 308.22 K	0.00773
in n-butyl acetate, 313.3 K	0.00931
in n-butyl acetate, 318.24 K	0.0111
in n-butyl acetate, 323.28 K	0.0133
in n-propanol, 288.27 K	0.0312
in n-propanol, 293.21 K	0.0386
in n-propanol, 298.23 K	0.0464
in n-propanol, 303.29 K	0.0557
in n-propanol, 308.33 K	0.068
in n-propanol, 313.18 K	0.0839
in n-propanol, 318.22 K	0.106
in n-propanol, 323.32 K	0.135
in water, 283.17 K	0.00729
in water, 288.31 K	0.0109
in water, 293.28 K	0.016
in water, 298.24 K	0.0234
in water, 303.19 K	0.0348
in water, 308.3 K	0.0549
in water, 313.17 K	0.0826
in water, 318.22 K	0.122
in water, 323.16 K	0.173
